According to patent publication US6054258A, “Photographic elements containing high-boiling esters” (Eastman Kodak Company, priority 1998, dated 2000):
≈ marks a conversion by molar mass, not a printed value.

Legend:
Format in all cases: physicochemical
[1] = Water solubility from light scattering at 500 nm of dispersions of the high-boiling solvent in water
Method: (§1) As noted earlier, high-boiling solvents are desired that have low water solubility and low-to-moderate viscosity and that provide suitably bathochromic dye hues, i.e. hues of suitably long wavelengths. In this example, these properties are evaluated for comparison high-boiling solvents known in the art and for high-boiling solvents of this invention.
Water solubilities were obtained from plots of light scattering at 500 nm of dispersions of the high-boiling solvent in water versus concentration. The light scattering density goes to zero at the solubility limit, when dispersions of high-boiling solvent are diluted. […] Viscosities reported in Table I were measured using a Brookfield cone/plate viscometer. Solvents of high polarity and/or polarizability are often needed to provide suitably bathochromic hues for the types of dyes commonly encountered in color photographic materials. Dye C1, whose structure is provided after Table I, is representative of such dyes. The visible absorption maxima (Lambda max) values for C1, measured with a Perkin Elmer Lambda 2S spectrophotometer, are provided in Table I as measure of solvent polarity/polarizability.

[2] = Viscosity measured using a Brookfield cone/plate viscometer
Method: as §1, with “invention. Results are summarized in Table I. Structures of the comparative high-boiling solvents are provided after Table I.” for “invention.”
(§2) Water solubilities were obtained from plots of light scattering at 500 nm of dispersions of the high-boiling solvent in water versus concentration. The light scattering density goes to zero at the solubility limit, when dispersions of high-boiling solvent are diluted. Values of log P calculated using MEDCHEM version 3.54 are also given in Table I and serve as rough indicators of water solubility. Viscosities reported in Table I were measured using a Brookfield cone/plate viscometer. Solvents of high polarity and/or polarizability are often needed to provide suitably bathochromic hues for the types of dyes commonly encountered in color photographic materials. Dye C1, whose structure is provided after Table I, is representative of such dyes. The visible absorption maxima (Lambda max) values for C1, measured with a Perkin Elmer Lambda 2S spectrophotometer, are provided in Table I as measure of solvent polarity/polarizability.

[3] = Visible absorption maximum (Lambda max) of Dye C1 in the solvent, measure of solvent polarity/polarizability; conditions: for Lambda max of Dye C1: Dye C1 in the high-boiling solvent, Perkin Elmer Lambda 2S spectrophotometer; for Lambda max of Dye C1 (in words): relative to B1 and B4; for polarity/polarizability (in words): relative to B1
Method: as §1, with “invention. Results are summarized in Table I. Structures of the comparative high-boiling solvents are provided after Table I.” for “invention.”
as §2

solubility [1] [µg/mL] | Viscosity [2] [centipoise] | Lambda max of Dye C1 [3] [nm] | Lambda max of Dye C1 (in words) [3] | Structure (SMILES) | polarity/polarizability (in words) [3]
5.5 (≈ 22.9 µM) | 15 | 673 | relatively close to those of B1 and B4 | O=C(OCCCc1ccccc1)c1ccccc1 [A1] | –
– | 99 | 668 | relatively close to those of B1 and B4 | CC(C)(COC(=O)c1ccccc1)Cc1ccccc1 [A2] | –
3.5 (≈ 13.8 µM) | 22 | 670 | relatively close to those of B1 and B4 | Cc1ccc(C(=O)OCCCc2ccccc2)cc1 [A3] | –
0.8 (≈ 2.54 µM) | 9 | 658 | – | CCCCOC(=O)CCCCCCCCC(=O)OCCCC [B2] | reduced polarity/polarizability relative to B1
– | 6 | 661 | – | CCCCC(CC)COC(=O)C1CCCCC1 (stereo not drawn) [B3] | reduced polarity/polarizability relative to B1
10 (≈ 44.2 µM) | 14 | 674 | – | O=C(OCCc1ccccc1)c1ccccc1 [B4] | –

Structure (SMILES) | solubility [1] [µg/mL] | Viscosity [2] [centipoise] | Lambda max of Dye C1 [3] [nm] | Lambda max of Dye C1 (in words) [3] | polarity/polarizability (in words) [3]
CCCCOC(=O)c1ccccc1C(=O)OCCCC [B1, dibutyl phthalate] | 9.4 (≈ 33.8 µM) | 17 | 674 | – | –
